Laboratory results taken from patent publication US12441768B2, “Compositions and methods for treating endometriosis” (EndoMet Biosciences, Inc., priority 2018, dated 2025).
Positions count from the first letter of the chain named. Several values for one entry are separate records, joined by “and”; a condition that tells them apart may be missing. Equal values may be shown once. Entries after “also recorded” stand apart in the source; their conditions may differ. Where a SMILES comes first, the peptide text is derived from it.

Assays:
[1] = target: Wnt-responsive promoter (TCF/LEF); test: Wnt-dependent luciferase reporter assay; type: cell-based, murine
Summary of the method: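 EC50 (uM) derived from inhibition of luminescence in Wnt3a-stimulated murine 3T3 cells expressing luciferase under a TCF/LEF promoter, with peptides added across a concentration range and vehicle as control.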

β-catenin [2] = target: T1, β-catenin (Homo sapiens, UniProt P35222); test: KD50 measurement using competitive fluorescence polarization (FP) with labelled TCF4; type: binding; conditions: fluorescence polarization, β-catenin; for Kd: read-out: β-Cat FP KD
T1 sequence (P35222 1-781): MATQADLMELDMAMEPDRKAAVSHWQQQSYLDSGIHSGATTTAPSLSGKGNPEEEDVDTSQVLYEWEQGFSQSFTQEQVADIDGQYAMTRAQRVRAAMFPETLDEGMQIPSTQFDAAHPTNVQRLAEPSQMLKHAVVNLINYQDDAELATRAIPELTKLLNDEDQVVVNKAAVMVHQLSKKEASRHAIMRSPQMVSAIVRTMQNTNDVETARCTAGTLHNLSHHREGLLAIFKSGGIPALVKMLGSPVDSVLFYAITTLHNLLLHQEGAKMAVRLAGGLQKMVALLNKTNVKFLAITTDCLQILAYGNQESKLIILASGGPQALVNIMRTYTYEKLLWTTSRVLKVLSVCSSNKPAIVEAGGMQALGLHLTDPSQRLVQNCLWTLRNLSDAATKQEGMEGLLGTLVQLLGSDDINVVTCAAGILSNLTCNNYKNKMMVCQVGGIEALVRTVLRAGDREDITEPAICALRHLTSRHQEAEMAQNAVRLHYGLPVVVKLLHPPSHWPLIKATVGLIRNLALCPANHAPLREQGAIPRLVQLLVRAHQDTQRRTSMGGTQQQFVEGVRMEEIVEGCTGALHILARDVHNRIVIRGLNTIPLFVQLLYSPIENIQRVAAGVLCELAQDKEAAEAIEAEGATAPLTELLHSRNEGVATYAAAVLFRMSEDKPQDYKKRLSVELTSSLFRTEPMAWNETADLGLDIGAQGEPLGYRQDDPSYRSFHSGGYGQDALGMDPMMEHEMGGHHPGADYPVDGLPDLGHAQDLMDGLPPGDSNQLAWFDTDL
Summary of the method: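 Polarization readout (470 nm excitation, 520 nm emission) tracks loss of labelled TCF4 binding to β-catenin as test compound competes. Conditions were 5 nM tracer, 100 nM β-catenin, room temperature, compound serially diluted from 10 nM to 30 uM; run in triplicate experiments.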

[3] = target: T2, β-catenin and E-Cadherin interaction (Homo sapiens, UniProt P35222); test: Competitive binding assay β-catenin / E-Cadherin-FC fusion; conditions: immobilized biotinylated β-catenin, 50 nM E-Cadherin-FC fusion, varying amounts of peptide
T2 sequence (P35222 1-781): T1 sequence (P35222 1-781)
Description: Competitive binding assays were performed (FIG. 3) wherein biotinylated β-catenin was immobilized on streptavidin plates and 50 nM E-Cadherin-FC fusion was added in the presence of varying amounts of the peptide inhibitors (SEQ ID NO: 42).

WNT pathway genes = test: Human WNT Signaling Pathway RT2 Profiler PCR Array in primary cells; type: cell-based; conditions: 48 h, compared with ICG001
Description: On-target activity of each peptide was assessed by the transcriptional activity of WNT pathway genes using Qiagen's Human WNT Signaling Pathway RT^2 Profiler PCR Array). Primary cells were administered the therapeutic peptide corresponding to SEQ ID NO: 42 for 48 h. RNA was extracted from the harvested cells and profiled on the array using rtPCR. The array contains 84 genes related to Wnt-mediated signal transduction, including ligands, receptors, downstream signaling molecules, and regulators of the Wnt canonical pathway, two non-canonical pathways, planar cell polarity, and a calcium ion-dependent pathway, 38 of which were assessed here. Positive control of ICG001, a known Wnt inhibitor, was also run on the RNA array to be used as a comparison.

β-catenin [4] = target: T3, β-catenin (Mus musculus, UniProt Q02248); test: Immunohistochemistry of β-catenin localization in lesions, area thresholding; type: in vivo; conditions: IP daily for 3 weeks
T3 construct: from tissue; host or cells: endometriosis lesions of the mouse model
T3 sequence (Q02248 1-781): T1 sequence (P35222 1-781) with P706A
Description: Endometriosis was established in a mouse model of disease. Mice were allowed to establish endometriosis for 3 weeks. After the first 3 weeks, mice were then intraperitoneally treated daily for 3 weeks with the therapeutic peptides corresponding to SEQ ID NOs: 215 or 393 or untreated negative control. To assess the localization of the peptides and β-catenin, lesions from the endometriosis mouse model were assessed. On the last day of treatment, in order to visualize the peptide localization to the lesion(s), mice were dosed with a biotinylated tagged peptide therapeutic or control. Mice were euthanized, lesions were removed, and fixed in formalin for histology and immunohistochemistry. Fixed and sectioned lesions were incubated with antibodies specific for β-catenin (Cell Signaling, 1:100, Secondary: Fisher Scientific, Goat anti-Rabbit-647 1:200), streptavidin for biotinylated-therapeutic (Fisher Scientific, SA-405 1:100), and Sytox green for nucleus (Fisher Scientific, 1:300). Immunohistochemical negative controls were performed on lesion sections from all treatment groups using IgG non-specific antibodies (Rabbit-IgG, AbCam 1:100).
Quantification of β-catenin localization was performed using the Zeiss Blue Software via thresholding. Thresholding allows the software to calculate the area of staining using pixel intensity; therefore, a quantitative number for staining can be extrapolated for the different cellular compartments (See Table 6).

EMS lesions = conditions: 5 mg/kg IP daily for three weeks, versus vehicle
Description: Lesions were established in an EMS mouse model of endometriosis by intraperitoneal injection of minced GFP+ uterine tissue from a mouse into wild-type c57/b16 mice. […] Endometrial disease was established in the mice and allowed to progress for three weeks prior to the initiation of therapy.

Compound	EC50 [1] [µM]	% Viability non-Wnt responsive cells (non-Wnt responsive cells) [%]	β-Cat FP Hill slope (β-catenin [2])	Kd (β-catenin [2]) [µM]	also measured
CC[C@H](C)[C@H](NC(=O)[C@H](CC(C)C)NC(=O)[C@H](Cc1ccccc1)NC(=O)[C@H](Cc1c[nH]c2ccccc12)NC(=O)[C@@H](N)CCSC)C(=O)N[C@@H](CS)C(=O)N[C@@H](Cc1ccccc1)C(=O)N[C@@H](Cc1c[nH]c2ccccc12)C(=O)NCC(=O)O [compound 42] (H-MWFLICFWG-OH)	< 7.5	108.69	0.96	< 0.4	–
CC[C@H](C)[C@H](NC(=O)[C@H](CC(C)C)NC(=O)[C@@H](NC(=O)[C@H](Cc1c[nH]c2ccccc12)NC(=O)[C@@H](N)CCSC)[C@@H](C)CC)C(=O)N[C@@H](CO)C(=O)N[C@@H](Cc1ccccc1)C(=O)N[C@@H](Cc1c[nH]c2ccccc12)C(=O)NCC(=O)O [compound 43] (H-MWILISFWG-OH)	< 7.5	98.97	0.92	0.4 to 1	–
CC[C@H](C)[C@H](NC(=O)[C@H](CC(C)C)NC(=O)[C@H](Cc1ccccc1)NC(=O)[C@H](Cc1c[nH]c2ccccc12)NC(=O)[C@@H](N)CCSC)C(=O)N[C@@H](CS)C(=O)N[C@@H](Cc1ccccc1)C(=O)N[C@@H](Cc1c[nH]c2ccccc12)C(=O)NCC(=O)O [SEQ ID NO: 42] (H-MWFLICFWG-OH)	–	–	–	–	Inhibition of the β-catenin and E-Cadherin interaction [3]: None of the doses tested inhibited; Inhibition of gene transcripts within the Wnt pathway (WNT pathway genes): outperformed the known positive control; also recorded: potent and specific Wnt inhibitor
CCCC[C@@H]1NC(=O)[C@@H](NC(C)=O)CCCCNC(=O)C[C@@H](C(=O)O)NC(=O)[C@H](Cc2c[nH]c3ccccc23)NC(=O)[C@H](C)NC(=O)[C@H](CC)NC(=O)[C@H]([C@@H](C)CC)NC(=O)[C@H](CC(C)C)NC(=O)[C@H](CC2CCCCC2)NC(=O)[C@H](Cc2c[nH]c3ccccc23)NC1=O [SEQ ID NO: 215, Cyclo-Ac-K*Nle-W-Cha-LI-Abu-AWD*-COOH] (HELM PEPTIDE1{[ac].K.[Nle].W.[Cha].L.I.[Abu].A.W.D}$PEPTIDE1,PEPTIDE1,2:R3-11:R3$$$V2.0)	–	–	–	–	% membrane bound β-catenin (staining area threshold), Average (β-catenin [4]; average of lesion samples): 46.4%; % nuclear β-catenin (staining area threshold), Average (β-catenin [4]; average of lesion samples): 1.0%; % nuclear β-catenin (staining area threshold) (β-catenin [4]; single lesion sample, listed as Peptide 2): 0.8% and 1.2% and 1.1%; β-Cat FP Hill slope (β-catenin [2]; listed as 2): 0.82; Activated macrophages (EMS lesions): relative increase; Relative numbers of activated macrophages, foam cells, polymorphonuclear neutrophils, B cells and T cells at the site of lesions (histology) (EMS lesions): increase in the relative numbers
CC[C@H](C)[C@@H]1NC(=O)[C@H](CC(C)C)NC(=O)[C@H](Cc2ccccc2)NC(=O)[C@H](Cc2c[nH]c3ccccc23)NC(=O)[C@@H](N)CCCCNC(=O)CC[C@@H](C(=O)N[C@@H](Cc2c[nH]c3ccccc23)C(=O)NCC(=O)O)NC(=O)[C@H](CS)NC1=O [compound 181] (HELM PEPTIDE1{K.W.F.L.I.C.E.W.G}$PEPTIDE1,PEPTIDE1,1:R3-7:R3$$$V2.0)	> 30	89.16	1.15	–	–
